Measured values taken from BindingDB's records for doi:10.1021/jm060978s (Daiichi Asubio Medical Research Laboratories, 2006).
pIC50: −log10 of the molar value.

What was measured:
Test in all cases: Enzyme Inhibition Assay
Coagulation factor X = Coagulation factor X (Homo sapiens, UniProt P00742)
Coagulation factor XI = Coagulation factor XI (Homo sapiens, UniProt P03951); conditions: pH 7.4; 30 °C
Prothrombin = Prothrombin (Homo sapiens, UniProt P00734)

Chain of Coagulation factor XI (P03951 19-387 limits assumed): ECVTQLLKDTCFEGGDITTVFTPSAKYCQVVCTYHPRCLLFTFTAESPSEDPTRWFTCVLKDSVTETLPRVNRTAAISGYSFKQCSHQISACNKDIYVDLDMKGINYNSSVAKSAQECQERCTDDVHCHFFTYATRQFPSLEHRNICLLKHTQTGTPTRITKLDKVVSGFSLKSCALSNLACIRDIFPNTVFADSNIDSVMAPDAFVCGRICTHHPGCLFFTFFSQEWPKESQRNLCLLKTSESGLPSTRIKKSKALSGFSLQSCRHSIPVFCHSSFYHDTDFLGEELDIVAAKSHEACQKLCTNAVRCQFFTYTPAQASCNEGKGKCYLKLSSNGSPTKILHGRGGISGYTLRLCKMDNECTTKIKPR
Chain of Coagulation factor XI (P03951 388-625 limits assumed): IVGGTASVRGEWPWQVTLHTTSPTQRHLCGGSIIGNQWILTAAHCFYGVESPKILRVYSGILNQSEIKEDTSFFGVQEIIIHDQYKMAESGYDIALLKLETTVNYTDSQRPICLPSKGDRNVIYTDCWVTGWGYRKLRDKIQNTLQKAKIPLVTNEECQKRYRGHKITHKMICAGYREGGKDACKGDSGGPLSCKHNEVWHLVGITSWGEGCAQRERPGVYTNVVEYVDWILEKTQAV
Chain of Coagulation factor X (P00742 41-179 limits assumed): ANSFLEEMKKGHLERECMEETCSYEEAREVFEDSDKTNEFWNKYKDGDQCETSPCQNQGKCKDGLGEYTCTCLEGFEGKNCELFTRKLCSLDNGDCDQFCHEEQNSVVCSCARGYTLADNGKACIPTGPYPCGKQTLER
Chain of Coagulation factor X (P00742 235-488 limits assumed): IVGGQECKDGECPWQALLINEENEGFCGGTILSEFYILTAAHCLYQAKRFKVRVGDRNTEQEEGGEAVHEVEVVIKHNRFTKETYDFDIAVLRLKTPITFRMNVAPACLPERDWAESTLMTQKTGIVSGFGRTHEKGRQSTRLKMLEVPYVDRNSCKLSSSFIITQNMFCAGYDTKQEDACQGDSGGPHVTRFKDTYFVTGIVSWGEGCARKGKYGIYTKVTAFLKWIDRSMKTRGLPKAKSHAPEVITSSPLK

Compound: CC(C)[C@H](NC(=O)[C@H](Cc1ccccc1)NC(=O)Nc1ccccc1)C(=O)N[C@@H](CCCN=C(N)N)C(=O)c1nccs1 [(2S)-N-[(2S)-5-carbamimidamido-1-oxo-1-(1,3-thiazol-2-yl)pentan-2-yl]-3-methyl-2-[(2S)-3-phenyl-2-[(phenylcarbamoyl)amino]propanamido]butanamide]
- pIC50 (Coagulation factor X): < 4.70
- pIC50 (Coagulation factor XI): 5.72
- pIC50 (Prothrombin): 6.03

Compound: CC(C)[C@H](NC(=O)[C@H](Cc1ccccc1)NC(=O)NCc1ccc(F)cc1)C(=O)N[C@@H](CCCN=C(N)N)C(=O)c1nccs1 [(2S)-N-[(2S)-5-carbamimidamido-1-oxo-1-(1,3-thiazol-2-yl)pentan-2-yl]-2-[(2S)-2-({[(4-fluorophenyl)methyl]carbamoyl}amino)-3-phenylpropanamido]-3-methylbutanamide]
- pIC50 (Coagulation factor XI): 6.80
- pIC50 (Prothrombin): 5.37

Compound: CC(C)[C@H](NC(=O)[C@H](Cc1ccccc1)NC(=O)NCc1ccc(Cl)c(Cl)c1)C(=O)N[C@@H](CCCN=C(N)N)C(=O)c1nccs1 [(2S)-N-[(2S)-5-carbamimidamido-1-oxo-1-(1,3-thiazol-2-yl)pentan-2-yl]-2-[(2S)-2-({[(3,4-dichlorophenyl)methyl]carbamoyl}amino)-3-phenylpropanamido]-3-methylbutanamide]
- pIC50 (Coagulation factor X): 4.85
- pIC50 (Coagulation factor XI): 7.03
- pIC50 (Prothrombin): 5.17

Compound: CCOC(=O)C(Cc1ccccc1)NC(=O)N[C@@H](Cc1ccccc1)C(=O)N[C@H](C(=O)N[C@@H](CCCN=C(N)N)C(=O)c1nccs1)C(C)C (stereo partly drawn) [ethyl 2-({[(1S)-1-{[(1S)-1-{[(2S)-5-carbamimidamido-1-oxo-1-(1,3-thiazol-2-yl)pentan-2-yl]carbamoyl}-2-methylpropyl]carbamoyl}-2-phenylethyl]carbamoyl}amino)-3-phenylpropanoate]
- pIC50 (Coagulation factor X): 4.84
- pIC50 (Coagulation factor XI): 6.59
- pIC50 (Prothrombin): 5.68

Compound: CC(C)[C@H](NC(=O)[C@H](Cc1ccccc1)NS(=O)(=O)c1ccc(Cl)c(Cl)c1)C(=O)N[C@@H](CCCN=C(N)N)C(=O)c1nccs1 [(2S)-N-[(2S)-5-carbamimidamido-1-oxo-1-(1,3-thiazol-2-yl)pentan-2-yl]-2-[(2S)-2-[(3,4-dichlorobenzene)sulfonamido]-3-phenylpropanamido]-3-methylbutanamide]
- pIC50 (Coagulation factor XI): 5.64

Compound: CCOC(=O)C(CC(C)C)NC(=O)N[C@@H](Cc1ccccc1)C(=O)N[C@H](C(=O)N[C@@H](CCCN=C(N)N)C(=O)c1nccs1)C(C)C (stereo partly drawn) [ethyl 2-({[(1S)-1-{[(1S)-1-{[(2S)-5-carbamimidamido-1-oxo-1-(1,3-thiazol-2-yl)pentan-2-yl]carbamoyl}-2-methylpropyl]carbamoyl}-2-phenylethyl]carbamoyl}amino)-4-methylpentanoate]
- pIC50 (Coagulation factor X): 4.81
- pIC50 (Coagulation factor XI): 6.39
- pIC50 (Prothrombin): 5.68

Compound: CC(C)[C@H](NC(=O)[C@H](Cc1ccccc1)NC(=O)Cc1cccs1)C(=O)N[C@@H](CCCN=C(N)N)C(=O)c1nccs1 [(2S)-N-[(2S)-5-carbamimidamido-1-oxo-1-(1,3-thiazol-2-yl)pentan-2-yl]-3-methyl-2-[(2S)-3-phenyl-2-[1-(thiophen-2-yl)acetamido]propanamido]butanamide]
- pIC50 (Coagulation factor XI): 5.59

Compound: CC(C)[C@H](NC(=O)[C@H](Cc1ccccc1)NC(=O)c1ccco1)C(=O)N[C@@H](CCCN=C(N)N)C(=O)c1nccs1 [(2S)-N-[(2S)-5-carbamimidamido-1-oxo-1-(1,3-thiazol-2-yl)pentan-2-yl]-2-[(2S)-2-(furan-2-ylformamido)-3-phenylpropanamido]-3-methylbutanamide]
- pIC50 (Coagulation factor XI): 5.66
